Reference: ChEMBL document CHEMBL1201862, “PubChem BioAssay data set” (2004)
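Assay format: 96-well plates, 48-hour exposure. Here, GI50 denotes the concentration required for 50% inhibition of growth.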 Active and inactive are the calls of the source. No stated cut-off is given here; in the data, active = GI50 up to about 1.1 µM and inactive = higher.

How the values were obtained:
Assay in all cases: NCI-60 cell line screen, 48 h
SF-295 = system: SF-295
SK-MEL-28 = system: SK-MEL-28
SW-620 = system: SW-620
HT-29 = system: HT-29
PC-3 = system: PC-3
A498 = system: A498
HCT-116 = system: HCT-116
KM12 = system: KM12
OVCAR-4 = system: OVCAR-4
BT-549 = system: BT-549
CAKI-1 = system: CAKI-1
NCI-H23 = system: NCI-H23
NCI-H522 = system: NCI-H522
T47D = system: T47D
TK-10 = system: TK-10
EKVX = system: EKVX
IGROV-1 = system: IGROV-1
DU-145 = system: DU-145
UACC-62 = system: UACC-62

Structure (SMILES) | GI50 (SF-295) | GI50 (SK-MEL-28) | GI50 (SW-620) | GI50 (HT-29) | GI50 (PC-3) | GI50 (A498) | GI50 (HCT-116) | GI50 (KM12) | GI50 (OVCAR-4) | GI50 (BT-549) | GI50 (CAKI-1) | GI50 (NCI-H23) | GI50 (NCI-H522) | GI50 (T47D) | GI50 (TK-10) | GI50 (EKVX) | GI50 (IGROV-1) | GI50 (DU-145) | GI50 (UACC-62)
O=C1CC2(CCC(O)(c3ccc(Cl)cc3)C(C(=O)c3ccc(Cl)cc3)C2)C(=O)c2ccccc2N1 (stereo unspecified) | 6.47 µM (inactive) | 4.53 µM (inactive) | 27.4 µM (inactive) | 3.89 µM (inactive) | > 100 µM (inactive) | 17.3 µM (inactive) | 6.17 µM (inactive) | > 100 µM (inactive) | 0.877 µM (active) | 19.7 µM (inactive) | 9.62 µM (inactive) | 14.6 µM (inactive) | 11.7 µM (inactive) | 12.4 µM (inactive) | 9.86 µM (inactive) | > 23.6 µM (inactive) | > 26.3 µM (inactive) | 6.82 µM (inactive) | 14.8 µM (inactive)
C1CSCCCSCCSCCCSC1 | > 100 µM (inactive) | > 100 µM (inactive) | > 100 µM (inactive) | > 100 µM (inactive) | > 100 µM (inactive) | > 100 µM (inactive) | > 100 µM (inactive) | – | > 100 µM (inactive) | > 100 µM (inactive) | > 100 µM (inactive) | > 100 µM (inactive) | 67.9 µM (inactive) | > 100 µM (inactive) | > 100 µM (inactive) | > 100 µM (inactive) | > 100 µM (inactive) | > 100 µM (inactive) | > 100 µM (inactive)
CN(C)CCCN1C(=S)N(CCCN(C)C)c2c3cc(O)ccc3nc3c([N+](=O)[O-])ccc1c23 | 3.37 µM (inactive) | 2.58 µM (inactive) | 1.96 µM (inactive) | 0.757 µM (active) | 2.05 µM (inactive) | 0.839 µM (active) | 1 µM (active) | 2.7 µM (inactive) | 2.61 µM (inactive) | 11.7 µM (inactive) | 1.66 µM (inactive) | 3.41 µM (inactive) | 1.32 µM (inactive) | 1.44 µM (inactive) | 11.5 µM (inactive) | 4.08 µM (inactive) | 0.7 µM (active) | 2.47 µM (inactive) | 5.13 µM (inactive)
CC(=O)OCC(OC(C)=O)C(OC(C)=O)C(OC(C)=O)C(C=NN(C(C)=O)S(=O)(=O)c1ccc(/C=C2\NC(=O)N(C)C2=O)cc1)OC(C)=O (stereo unspecified) | 95.9 µM (inactive) | – | 34.4 µM (inactive) | 34.9 µM (inactive) | 40.1 µM (inactive) | 59.7 µM (inactive) | 16.9 µM (inactive) | 42.4 µM (inactive) | 53.5 µM (inactive) | 33.9 µM (inactive) | 40.2 µM (inactive) | 34.5 µM (inactive) | 23.7 µM (inactive) | 27.1 µM (inactive) | 3.35 µM (inactive) | 43 µM (inactive) | 31.6 µM (inactive) | 33 µM (inactive) | 13.6 µM (inactive)
O=C1NCN(c2ccccc2)C12CCN(CCCN1CCN(CCOC(c3ccccc3)c3ccccc3)CC1)CC2 | 2.69 µM (inactive) | 1.34 µM (inactive) | 2.62 µM (inactive) | 1.11 µM (active) | 3.99 µM (inactive) | 3.36 µM (inactive) | 2.33 µM (inactive) | 2.87 µM (inactive) | 3.53 µM (inactive) | 3.92 µM (inactive) | 3.78 µM (inactive) | 3.94 µM (inactive) | 1.73 µM (inactive) | 3.02 µM (inactive) | 3.83 µM (inactive) | 3.68 µM (inactive) | 4.03 µM (inactive) | 3.59 µM (inactive) | 4.27 µM (inactive)
O=C(N/N=C/C=C/c1ccc([N+](=O)[O-])o1)c1ccc(C(=O)N/N=C/C=C/c2ccc([N+](=O)[O-])o2)cc1 | > 85.5 µM (inactive) | 57 µM (inactive) | 19.1 µM (inactive) | 72.9 µM (inactive) | > 30.5 µM (inactive) | > 100 µM (inactive) | 12.7 µM (inactive) | > 100 µM (inactive) | > 72.3 µM (inactive) | > 100 µM (inactive) | 38.6 µM (inactive) | 49.8 µM (inactive) | 24.3 µM (inactive) | > 40.1 µM (inactive) | 31.8 µM (inactive) | > 100 µM (inactive) | 46.8 µM (inactive) | > 47 µM (inactive) | > 86.3 µM (inactive)
CN(C)c1ccc(/C=C(\NC(=O)c2ccccc2)c2nc3ccccc3c(=O)o2)cc1 | > 100 µM (inactive) | > 100 µM (inactive) | > 100 µM (inactive) | > 100 µM (inactive) | > 100 µM (inactive) | > 100 µM (inactive) | > 100 µM (inactive) | > 100 µM (inactive) | > 100 µM (inactive) | > 100 µM (inactive) | > 100 µM (inactive) | > 100 µM (inactive) | 46.7 µM (inactive) | > 100 µM (inactive) | > 100 µM (inactive) | > 100 µM (inactive) | > 100 µM (inactive) | > 100 µM (inactive) | > 100 µM (inactive)
CCCCCC(=O)Nc1[nH]cnc1C(N)=O | > 100 µM (inactive) | > 100 µM (inactive) | > 100 µM (inactive) | > 100 µM (inactive) | > 100 µM (inactive) | > 100 µM (inactive) | > 100 µM (inactive) | > 100 µM (inactive) | > 100 µM (inactive) | > 100 µM (inactive) | > 100 µM (inactive) | > 100 µM (inactive) | > 100 µM (inactive) | > 100 µM (inactive) | > 100 µM (inactive) | > 100 µM (inactive) | > 100 µM (inactive) | > 100 µM (inactive) | > 100 µM (inactive)
CS/C(Nc1ccccc1)=C1\C(=O)N(c2ccccc2)N=C1C | – | > 100 µM (inactive) | > 100 µM (inactive) | > 100 µM (inactive) | > 100 µM (inactive) | 95.7 µM (inactive) | > 100 µM (inactive) | > 100 µM (inactive) | > 100 µM (inactive) | > 100 µM (inactive) | 52 µM (inactive) | > 100 µM (inactive) | 35.1 µM (inactive) | > 100 µM (inactive) | > 100 µM (inactive) | > 100 µM (inactive) | – | > 100 µM (inactive) | > 100 µM (inactive)
COC1C(O)=C2C(=O)OC(C)(O)/C=C/C=C\C=C/C=C/C(c3ccccc3)NC(=O)/C=C/C=C/C=C/C=C/C2(C)C1O (stereo unspecified) | 0.0111 µM (active) | 0.0461 µM (active) | 0.00139 µM (active) | < 0.001 µM (active) | 0.00339 µM (active) | 0.0137 µM (active) | 0.00403 µM (active) | 0.00679 µM (active) | 0.0678 µM (active) | 0.0128 µM (active) | 0.0175 µM (active) | 0.0158 µM (active) | < 0.001 µM (active) | 0.0152 µM (active) | 0.00871 µM (active) | 0.0118 µM (active) | 0.0165 µM (active) | 0.00533 µM (active) | 0.114 µM (active)
Cc1ccnc(NC(=S)Nc2cccc(Cl)c2)c1 | > 100 µM (inactive) | > 100 µM (inactive) | > 100 µM (inactive) | > 100 µM (inactive) | > 100 µM (inactive) | > 100 µM (inactive) | > 100 µM (inactive) | > 100 µM (inactive) | > 100 µM (inactive) | > 100 µM (inactive) | > 100 µM (inactive) | – | 0.02 µM (active) | > 100 µM (inactive) | > 100 µM (inactive) | 12.4 µM (inactive) | 10.5 µM (inactive) | > 100 µM (inactive) | > 100 µM (inactive)
COc1cc(C2OC[C@@H]3C(=O)OC[C@H]23)cc(O)c1OC (stereo partly specified) | > 100 µM (inactive) | – | > 100 µM (inactive) | > 100 µM (inactive) | > 100 µM (inactive) | > 100 µM (inactive) | > 100 µM (inactive) | > 100 µM (inactive) | > 100 µM (inactive) | > 100 µM (inactive) | > 100 µM (inactive) | > 100 µM (inactive) | > 100 µM (inactive) | > 100 µM (inactive) | > 100 µM (inactive) | > 100 µM (inactive) | > 100 µM (inactive) | > 100 µM (inactive) | > 100 µM (inactive)
O=C(Nc1ccccc1F)c1cc2ccc(O)cc2o/c1=N\c1cccc(F)c1 | 4.3 µM (inactive) | 12.3 µM (inactive) | 9.04 µM (inactive) | 37.5 µM (inactive) | 18.6 µM (inactive) | 18.2 µM (inactive) | 11.1 µM (inactive) | 12.6 µM (inactive) | 9.86 µM (inactive) | 15.3 µM (inactive) | 19.5 µM (inactive) | 2.16 µM (inactive) | 2.37 µM (inactive) | 4.25 µM (inactive) | – | 11.1 µM (inactive) | 3.66 µM (inactive) | 15 µM (inactive) | 11.8 µM (inactive)
Fc1ccc(OCc2nc3cc(C(F)(F)F)ccc3nc2-c2ccccc2)cc1 | > 100 µM (inactive) | > 100 µM (inactive) | > 100 µM (inactive) | 21.4 µM (inactive) | > 100 µM (inactive) | > 100 µM (inactive) | 99.5 µM (inactive) | > 100 µM (inactive) | 92 µM (inactive) | > 46.1 µM (inactive) | > 100 µM (inactive) | > 100 µM (inactive) | 28.4 µM (inactive) | 62.5 µM (inactive) | – | > 86.9 µM (inactive) | > 100 µM (inactive) | > 100 µM (inactive) | > 100 µM (inactive)
O=c1c2cc(-c3ccccc3)cnc2sn1-c1ccc(Br)cc1 | > 100 µM (inactive) | > 100 µM (inactive) | > 100 µM (inactive) | > 100 µM (inactive) | > 100 µM (inactive) | > 100 µM (inactive) | > 100 µM (inactive) | > 100 µM (inactive) | > 100 µM (inactive) | > 100 µM (inactive) | > 100 µM (inactive) | > 100 µM (inactive) | 47.5 µM (inactive) | > 100 µM (inactive) | – | > 100 µM (inactive) | 58.1 µM (inactive) | > 100 µM (inactive) | > 100 µM (inactive)
